Our source for the IC50 values is the Kinase Knowledgebase extract (Sharma et al. 2016).

Structures are written as SMILES. Bounds are passed on as bounds.

The target of the assay is EGFR (human) (UniProt P00533).
Sequence of EGFR (human) (P00533 whole entry, looked up): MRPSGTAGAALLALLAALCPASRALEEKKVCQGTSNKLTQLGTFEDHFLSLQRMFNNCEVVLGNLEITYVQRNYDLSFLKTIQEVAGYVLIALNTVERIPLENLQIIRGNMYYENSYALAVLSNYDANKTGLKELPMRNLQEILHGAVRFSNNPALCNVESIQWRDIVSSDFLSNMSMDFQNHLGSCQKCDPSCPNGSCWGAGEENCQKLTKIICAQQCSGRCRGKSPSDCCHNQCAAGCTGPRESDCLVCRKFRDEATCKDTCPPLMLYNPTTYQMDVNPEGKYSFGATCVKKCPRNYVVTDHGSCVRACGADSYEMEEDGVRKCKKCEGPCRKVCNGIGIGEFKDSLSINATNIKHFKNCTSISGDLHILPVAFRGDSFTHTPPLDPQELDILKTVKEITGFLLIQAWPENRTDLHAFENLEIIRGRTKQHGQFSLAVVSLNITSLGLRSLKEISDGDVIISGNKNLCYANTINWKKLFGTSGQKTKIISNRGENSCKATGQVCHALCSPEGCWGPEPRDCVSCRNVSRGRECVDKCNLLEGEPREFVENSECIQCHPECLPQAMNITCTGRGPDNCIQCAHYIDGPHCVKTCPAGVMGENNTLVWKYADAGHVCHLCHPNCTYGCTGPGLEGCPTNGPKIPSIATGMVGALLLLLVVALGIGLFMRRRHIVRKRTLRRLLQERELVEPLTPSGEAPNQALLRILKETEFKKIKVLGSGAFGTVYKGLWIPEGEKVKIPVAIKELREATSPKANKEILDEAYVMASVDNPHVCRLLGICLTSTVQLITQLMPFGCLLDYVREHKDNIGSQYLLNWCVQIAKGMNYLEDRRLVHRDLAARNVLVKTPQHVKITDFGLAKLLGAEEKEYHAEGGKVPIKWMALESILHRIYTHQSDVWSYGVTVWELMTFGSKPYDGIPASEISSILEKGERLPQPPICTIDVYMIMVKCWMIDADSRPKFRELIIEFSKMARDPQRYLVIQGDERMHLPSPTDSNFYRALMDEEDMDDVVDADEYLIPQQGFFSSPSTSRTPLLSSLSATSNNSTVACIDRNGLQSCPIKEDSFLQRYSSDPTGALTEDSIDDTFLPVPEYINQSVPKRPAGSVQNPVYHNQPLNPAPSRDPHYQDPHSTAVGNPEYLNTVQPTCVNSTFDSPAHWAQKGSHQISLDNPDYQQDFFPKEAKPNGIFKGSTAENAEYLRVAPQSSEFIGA
Consider `O=C(O)c1cccc(-c2ccc(C=NNc3nc4nonc4nc3Nc3cccc(Cl)c3)o2)c1`, for which the IC50 (commonly the midpoint of a concentration-inhibition curve) is less than 1000 nM. `NC(=O)c1cccc(-c2ccc(C=NNc3nc4nonc4nc3Nc3ccc(F)c(Cl)c3)o2)c1` showed an IC50 of less than 1000 nM. `O=C1Nc2ccccc2C1=NNc1nc2nonc2nc1Nc1ccc(Cl)c(Cl)c1` came in with an IC50 of less than 1000 nM. Molecule `Clc1ccc(Nc2nc3nonc3nc2NN=Cc2ccco2)cc1Cl` yielded an IC50 of less than 1000 nM. For `O=C(O)c1cc(-c2ccc(C=NNc3nc4nonc4nc3Nc3ccc(F)c(Cl)c3)o2)ccc1Cl`, the IC50 is less than 1000 nM. The result for `O=[N+]([O-])c1cccc(-c2ccc(C=NNc3nc4nonc4nc3Nc3cccc(Cl)c3)o2)c1` reads less than 1000 nM. The result for `COc1cc(C=NNc2nc3nonc3nc2Nc2ccccc2F)cc([N+](=O)[O-])c1O` reads less than 1000 nM; that for `Clc1ccc(Nc2nc3nonc3nc2NN=Cc2cc3ccccc3o2)cc1Cl`, less than 1000 nM. `COc1ccc(C=NNc2nc3nonc3nc2Nc2ccc(Cl)c(Cl)c2)c(O)c1`: the IC50 is less than 1000 nM.

For `COc1ccc(O)c(C=NNc2nc3nonc3nc2Nc2ccc(Cl)c(Cl)c2)c1`, the IC50 was less than 1000 nM. The result for `O=C(O)c1cc(-c2ccc(C=NNc3nc4nonc4nc3Nc3ccc(Cl)c(Cl)c3)o2)ccc1Cl` reads less than 1000 nM. The result for `Oc1c(Br)cc(Br)cc1C=NNc1nc2nonc2nc1Nc1ccc(F)c(Cl)c1` reads less than 1000 nM; that for `Cc1cccc(Nc2nc3nonc3nc2NN=Cc2ccc(-c3cccc(C(=O)O)c3)o2)c1`, less than 1000 nM.

In the case of `O=c1[nH]c2ccc(Nc3nc4nonc4nc3NN=Cc3cc(I)cc(I)c3OCc3ccc(Cl)cc3Cl)cc2[nH]1`, the IC50 was less than 1000 nM. `Clc1ccc(Nc2nc3nonc3nc2NN=Cc2ccc(-c3ccccc3)o2)cc1Cl` had an IC50 of less than 1000 nM. The result for `Fc1ccc(Nc2nc3nonc3nc2NN=Cc2ccc(-c3ccccc3)o2)cc1Cl` reads less than 1000 nM; that for `COc1cc(Br)cc(C=NNc2nc3nonc3nc2Nc2cccc(Cl)c2)c1O`, less than 1000 nM.

In the case of `O=C(O)c1cc(-c2ccc(C=NNc3nc4nonc4nc3Nc3ccc(Br)cc3)o2)ccc1Cl`, the IC50 was less than 1000 nM. With `O=C(O)c1cccc(-c2ccc(C=NNc3nc4nonc4nc3Nc3ccc(Cl)c(Cl)c3)o2)c1`, the IC50 was less than 1000 nM. The molecule `O=C(O)c1cccc(C=NNc2nc3nonc3nc2Nc2ccc(F)c(Cl)c2)c1` displayed an IC50 of less than 1000 nM. Molecule `Oc1ccc(C=NNc2nc3nonc3nc2Nc2ccc(Cl)c(Cl)c2)c(O)c1` came in with an IC50 of less than 1000 nM. The result for `COc1cccc(C=NNc2nc3nonc3nc2Nc2ccc(Cl)c(Cl)c2)c1O` reads less than 1000 nM; that for `O=C(O)c1cccc(C=NNc2nc3nonc3nc2Nc2ccc(Cl)c(Cl)c2)c1`, less than 1000 nM; that for `Oc1c(Br)cc(Cl)cc1C=NNc1nc2nonc2nc1Nc1ccc(Cl)c(Cl)c1`, less than 1000 nM. The molecule `O=C(O)c1cc(-c2ccc(C=NNc3nc4nonc4nc3Nc3ccc(F)cc3)o2)ccc1Cl` displayed a half-maximal inhibitory concentration (IC50) of less than 1000 nM. In turn, `O=C(O)c1ccc(C=NNc2nc3nonc3nc2Nc2ccc(F)c(Cl)c2)cc1` yielded an IC50 of less than 1000 nM. The result for `Cc1cccc(Nc2nc3nonc3nc2NN=Cc2ccc(-c3ccc(Cl)c(C(=O)O)c3)o2)c1C` reads less than 1000 nM; that for `NC(=O)c1cccc(-c2ccc(C=NNc3nc4nonc4nc3Nc3ccc(Cl)c(Cl)c3)o2)c1`, less than 1000 nM. Regarding `O=C(O)c1ccc(-c2ccc(C=NNc3nc4nonc4nc3Nc3ccc(F)c(Cl)c3)o2)cc1`, the IC50 was less than 1000 nM. The result for `O=C1Nc2ccccc2C1=NNc1nc2nonc2nc1Nc1ccc(F)c(Cl)c1` reads less than 1000 nM. As for `Oc1c(Br)cc(Br)cc1C=NNc1nc2nonc2nc1Nc1cccc(Cl)c1`, the IC50 is less than 1000 nM. Take `O=C(O)c1ccc(-c2ccc(C=NNc3nc4nonc4nc3Nc3ccc(Cl)c(Cl)c3)o2)cc1`: the IC50 is less than 1000 nM. The result for `O=C(O)c1ccc(-c2ccc(C=NNc3nc4nonc4nc3Nc3ccc(F)cc3)o2)cc1` reads less than 1000 nM. The result for `O=C(O)c1cc(-c2ccc(C=NNc3nc4nonc4nc3Nc3ccccc3F)o2)ccc1Cl` reads less than 1000 nM. The result for `CCOC(=O)c1ccccc1C=NNc1nc2nonc2nc1Nc1ccc(Cl)c(Cl)c1` reads less than 1000 nM.

The molecule `O=[N+]([O-])c1cccc(-c2ccc(C=NNc3nc4nonc4nc3Nc3ccc(F)cc3)o2)c1` came in with an IC50 of less than 1000 nM. Molecule `Fc1ccc(Nc2nc3nonc3nc2NN=Cc2ccc(-c3ccc(Cl)cc3)o2)cc1Cl` yielded an IC50 of less than 1000 nM.

`Clc1ccc(-c2ccc(C=NNc3nc4nonc4nc3Nc3ccc(Cl)c(Cl)c3)o2)cc1` registered an IC50 of less than 1000 nM. Molecule `Fc1ccc(Nc2nc3nonc3nc2NN=Cc2cc3ccccc3o2)cc1Cl` registered an IC50 of less than 1000 nM.

In turn, `O=C(O)c1cc(-c2ccc(C=NNc3nc4nonc4nc3Nc3ccccc3F)o2)ccc1O` returned an IC50 of less than 1000 nM. `Fc1ccc(Nc2nc3nonc3nc2NN=Cc2ccc(-c3ccc(Cl)cc3Cl)o2)cc1` returned an IC50 of less than 1000 nM.
